Experimental data: PubChem BioAssay AID330 (DTP/NCI, 2004)
“And” between values parts separate entries of the source, which are not always exact repeats. Identical values can stand only once. Toxic doses and inconclusive results are not listed. Rule for the calls: active = survival T/C of 150% or more; inactive = T/C below 125% in these data.

System: P388 leukemia ip, CD2F1 mice, survival T/C
Assay: NCI In Vivo Anticancer Drug Screen. Data for tumor model P388 Leukemia (intraperitoneal) in CD2F1 (CDF1) mice
Conditions: endpoint: median survival time, higher = longer survival
How it was run: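 Mice carrying the transplanted tumor received test compound or vehicle. Survival was recorded in each group, and the value is the treated-group measurement divided by that of the vehicle-treated control group.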

[1] = dose: 50.0 mg/kg/injection, schedule: Q01DX009 (ip), vehicle: Klucel (hydroxypropylcellulose) (HPC)
[2] = dose: 50.0 mg/kg/injection, schedule: Q01DX009 (ip), vehicle: saline with Tween-80
[3] = dose: 100.0 mg/kg/injection, schedule: Q01DX009 (ip), vehicle: Klucel (hydroxypropylcellulose) (HPC)
[4] = dose: 100.0 mg/kg/injection, schedule: Q01DX009 (ip), vehicle: saline with Tween-80
[5] = dose: 200.0 mg/kg/injection, schedule: Q01DX009 (ip), vehicle: Klucel (hydroxypropylcellulose) (HPC)
[6] = dose: 100.0 mg/kg/injection, schedule: Q04DX003 (ip), vehicle: saline with Tween-80
[7] = dose: 400.0 mg/kg/injection, schedule: Q04DX003 (ip), vehicle: saline with Tween-80
[8] = dose: 50.0 mg/kg/injection, schedule: Q01DX005 (ip), vehicle: saline with Tween-80
[9] = dose: 200.0 mg/kg/injection, schedule: Q01DX009 (ip), vehicle: saline with Tween-80

Measured: T/C

CCCCCC(=O)NC(Cc1ccc(N(CCCl)CCCl)cc1)C(=O)O (stereo not given)
active: dose: 21.2 mg/kg/injection, schedule: Q03HX008 (ip), vehicle: saline 150 % of control
inactive: dose: 1.3 mg/kg/injection, schedule: Q03HX008 (ip), vehicle: saline 100 % of control | dose: 1.32 mg/kg/injection, schedule: Q01DX009 (ip), vehicle: saline 109 % of control | dose: 2.6 mg/kg/injection, schedule: Q03HX008 (ip), vehicle: saline 110 % of control | dose: 2.65 mg/kg/injection, schedule: Q01DX009 (ip), vehicle: saline 113 % of control | dose: 5.3 mg/kg/injection, schedule: Q03HX008 (ip), vehicle: saline 120 % of control

CCN(CC)CC(C)(C)C(=O)/C=C/c1ccc(Cl)cc1
inactive: dose: 60.0 mg/kg/injection, schedule: Q01DX005 (ip), vehicle: saline 110 % of control | dose: 120.0 mg/kg/injection, schedule: Q01DX005 (ip), vehicle: saline 116 % of control

C[N+](C)(C)C.O=C([CH-]C(=O)C(F)(F)F)c1ccccc1.O=C([CH-]C(=O)C(F)(F)F)c1ccccc1.O=C([CH-]C(=O)C(F)(F)F)c1ccccc1.O=C([CH-]C(=O)C(F)(F)F)c1ccccc1.[Eu+3]
inactive: dose: 25.0 mg/kg/injection, schedule: Q01DX009 (ip), vehicle: Klucel (hydroxypropylcellulose) (HPC) 99 % of control | [1] 106 % of control and 113 % of control | [2] 103 % of control | [3] 112 % of control and 117 % of control | [4] 99 % of control | [5] 113 % of control

CC(=O)Oc1cccc(C#N)c1
inactive: [6] 100 % of control | dose: 200.0 mg/kg/injection, schedule: Q04DX003 (ip), vehicle: saline with Tween-80 100 % of control | [7] 104 % of control

CC1(C)CC(C#N)CC(C)(C)N1O
inactive: dose: 100.0 mg/kg/injection, schedule: Q04DX003 (ip), vehicle: Klucel (hydroxypropylcellulose) (HPC) 100 % of control

O=C(Nc1ccc(OCC2=NCCN2)cc1)c1ccc(C(=O)Nc2ccc(OCC3=NCCN3)cc2)cc1
inactive: [8] 108 % of control | dose: 100.0 mg/kg/injection, schedule: Q01DX005 (ip), vehicle: saline with Tween-80 103 % of control | dose: 200.0 mg/kg/injection, schedule: Q01DX005 (ip), vehicle: saline with Tween-80 105 % of control

O=C(c1ccccc1)C(C(=O)c1ccccc1)C(c1ccccc1)(c1ccccc1)c1ccccc1
inactive: dose: 12.5 mg/kg/injection, schedule: Q04DX003 (ip), vehicle: saline with Tween-80 97 % of control | dose: 25.0 mg/kg/injection, schedule: Q04DX003 (ip), vehicle: saline with Tween-80 99 % of control and 98 % of control | dose: 50.0 mg/kg/injection, schedule: Q04DX003 (ip), vehicle: saline with Tween-80 87 % of control | [6] 90 % of control and 91 % of control | [7] 88 % of control

O=C(NC(=NC(=NC1CCCCC1)c1ccccc1)c1ccccc1)c1ccccc1
inactive: [2] 99 % of control | [4] 92 % of control | [9] 89 % of control

[Cl][Pt+2][Cl].[NH-]C(c1ccc(Cl)cc1)C([NH-])c1ccc(Cl)cc1 (stereo not given)
inactive: dose: 6.25 mg/kg/injection, schedule: Q04DX002 (ip), vehicle: saline with Tween-80 124 % of control

O=C(O)Cn1nc([O-])[n+]2ccccc12
inactive: [2] 100 % of control | [4] 94 % of control | [9] 110 % of control

O=C(Oc1ccccc1)c1ccc(C(=O)Oc2ccccc2)cc1
inactive: [1] 108 % of control | [3] 102 % of control | [5] 101 % of control

Cc1c(O)ccc(N=O)c1O
inactive: dose: 6.25 mg/kg/injection, schedule: Q01DX005 (ip), vehicle: saline with Tween-80 98 % of control | dose: 12.5 mg/kg/injection, schedule: Q01DX005 (ip), vehicle: saline with Tween-80 94 % of control | dose: 25.0 mg/kg/injection, schedule: Q01DX005 (ip), vehicle: saline with Tween-80 90 % of control | [8] 93 % of control
